Values quoted from earlier work as cited in US8754096B2, “Piperidinone carboxamide azaindane CGRP receptor antagonists” (Merck Sharp & Dohme Corp., priority 2010, dated 2014).

Tested on: migraine
Conditions: phase III clinical trials, orally bioavailable

SMILES: O=C(N[C@@H]1CC[C@@H](c2cccc(F)c2F)CN(CC(F)(F)F)C1=O)N1CCC(n2c(=O)[nH]c3ncccc32)CC1 [telcagepant]
- antimigraine effectiveness: shown antimigraine effectiveness
